Assay results published in article PMC9870012 (Journal of Enzyme Inhibition and Medicinal Chemistry, 2023).

Experiments:
human meprin α = target: T1, human meprin α (Homo sapiens, UniProt Q16819); format: biochemical; details: for SF: selectivity factor (Ki(app) meprin β/Ki(app) meprin α): meprin α over meprin β; for Ki: Ki(app) Meprin α, geometric mean of three independent experiments with standard deviation factor; for reduction of the meprin α selectivity by factor: compared to 16a
T1 sequence (Q16819 66-746): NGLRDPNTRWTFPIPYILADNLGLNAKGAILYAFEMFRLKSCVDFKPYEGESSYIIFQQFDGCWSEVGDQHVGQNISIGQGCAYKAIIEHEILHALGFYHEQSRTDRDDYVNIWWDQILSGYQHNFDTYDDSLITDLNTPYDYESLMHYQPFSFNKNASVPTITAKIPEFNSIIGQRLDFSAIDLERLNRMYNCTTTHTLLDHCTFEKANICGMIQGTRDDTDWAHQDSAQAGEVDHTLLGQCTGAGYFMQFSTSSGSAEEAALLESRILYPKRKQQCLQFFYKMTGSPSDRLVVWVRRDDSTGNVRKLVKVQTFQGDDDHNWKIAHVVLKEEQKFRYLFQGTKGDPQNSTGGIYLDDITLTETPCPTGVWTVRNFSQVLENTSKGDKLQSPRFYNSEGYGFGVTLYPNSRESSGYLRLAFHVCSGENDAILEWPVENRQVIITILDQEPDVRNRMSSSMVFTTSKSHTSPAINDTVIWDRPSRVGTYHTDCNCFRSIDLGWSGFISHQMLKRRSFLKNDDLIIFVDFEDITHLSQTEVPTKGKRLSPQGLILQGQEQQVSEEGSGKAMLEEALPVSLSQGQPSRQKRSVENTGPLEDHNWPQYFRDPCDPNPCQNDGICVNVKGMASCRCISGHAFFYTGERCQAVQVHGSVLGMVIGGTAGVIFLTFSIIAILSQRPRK

human meprin β = target: T2, human meprin β (Homo sapiens, UniProt Q16820); format: biochemical; details: for Ki: Ki(app) Meprin β, geometric mean of three independent experiments with standard deviation factor
T2 sequence (Q16820 62-701): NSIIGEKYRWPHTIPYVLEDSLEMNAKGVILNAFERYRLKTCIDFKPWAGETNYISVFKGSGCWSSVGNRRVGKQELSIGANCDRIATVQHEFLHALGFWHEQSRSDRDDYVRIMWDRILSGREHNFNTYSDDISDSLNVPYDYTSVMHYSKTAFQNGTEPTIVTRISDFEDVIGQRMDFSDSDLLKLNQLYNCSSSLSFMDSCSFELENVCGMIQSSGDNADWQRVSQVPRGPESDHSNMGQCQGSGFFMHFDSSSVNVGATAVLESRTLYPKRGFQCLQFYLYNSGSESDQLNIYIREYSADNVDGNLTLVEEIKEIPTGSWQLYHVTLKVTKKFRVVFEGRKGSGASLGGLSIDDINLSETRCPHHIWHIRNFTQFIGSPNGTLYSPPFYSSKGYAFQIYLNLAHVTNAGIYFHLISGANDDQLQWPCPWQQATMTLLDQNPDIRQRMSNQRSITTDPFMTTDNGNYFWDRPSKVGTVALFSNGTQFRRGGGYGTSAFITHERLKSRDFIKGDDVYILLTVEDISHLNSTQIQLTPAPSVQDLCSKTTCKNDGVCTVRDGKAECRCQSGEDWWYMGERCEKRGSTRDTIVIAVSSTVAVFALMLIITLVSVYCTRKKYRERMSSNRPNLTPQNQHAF

SMILES | SF: selectivity factor (Ki(app) meprin β/Ki(app) meprin α) (human meprin α) | Ki (human meprin α) [nM] | Ki (human meprin β) [nM] | improvement in activity against meprin β by factor (human meprin β; compared to 7a) | increased inhibition of meprin β by factor (human meprin β; in comparison to the N-phenyl pyrazole 21b) | reduction of the meprin α selectivity by factor (human meprin α)
O=C(Cc1c(Cc2ccccc2)n[nH]c1-c1ccccc1)NO [14b, 2-(3-Benzyl-5-phenyl-1H-pyrazol-4-yl)ethanehydroxamic acid] | 25 | – | – | – | – | –
N#Cc1cccc(-c2n[nH]c(-c3ccccc3)c2CC(=O)NO)c1 [14h, 2-[3-(3-Cyanophenyl)-5-phenyl-1H-pyrazol-4-yl]ethanehydroxamic acid] | 67 | 4.8 | – | – | – | –
Cc1n[nH]c(-c2ccccc2)c1CC(=O)NO [14a, 2-(3-Methyl-5-phenyl-1H-pyrazol-4-yl)ethanehydroxamic acid] | 7 | – | – | – | – | –
COc1ccc(-c2n[nH]c(-c3ccccc3)c2CC(=O)NO)cc1 [14e, 2-[3-(4-Methoxyphenyl)-5-phenyl-1H-pyrazol-4-yl]ethanehydroxamic acid] | 48 | 1.3 | – | – | – | –
O=C(Cc1c(-c2cccc(-c3nnn[nH]3)c2)n[nH]c1-c1ccccc1)NO [14p, 2-[5-Phenyl-3-[3-(1H-tetrazol-5-yl)phenyl]-1H-pyrazol-4-yl]ethanehydroxamic acid] | 10 | 0.7 | 6.7 | 16 | – | –
O=C(Cc1c(-c2ccccc2)[nH]nc1[C@H]1CC[C@@H](C(=O)O)CC1)NO [14t, Cis-4-[4-[2-(hydroxyamino)-2-oxo-ethyl]-5-phenyl-1H-pyrazol-3-yl]cyclohexanecarboxylic acid] | 4 | – | – | – | – | –
N#Cc1ccc(-c2n[nH]c(-c3ccccc3)c2CC(=O)NO)cc1 [14i, 2-[3-(4-Cyanophenyl)-5-phenyl-1H-pyrazol-4-yl]ethanehydroxamic acid] | 71 | 13.6 | – | – | – | –
O=C(Cc1c(-c2cc(O)no2)n[nH]c1-c1ccccc1)NO [14n, 2-[3-(3-Hydroxyisoxazol-5-yl)-5-phenyl-1H-pyrazol-4-yl]ethanehydroxamic acid] | 1 | – | – | – | – | –
O=C(Cc1c(-c2ccccc2)[nH]nc1[C@H]1CC[C@H](C(=O)O)CC1)NO [14s, Trans-4-[4-[2-(hydroxyamino)-2-oxo-ethyl]-5-phenyl-1H-pyrazol-3-yl]cyclohexanecarboxylic acid] | 8 | 11.6 | – | – | – | –
O=C(Cc1c(-c2cccc(C(=O)O)c2)n[nH]c1-c1ccccc1)NO [14j, 3-[4-[2-(Hydroxyamino)-2-oxo-ethyl]-5-phenyl-1H-pyrazol-3-yl]benzoic acid] | 6 | 7.5 | – | – | – | –
O=C(Cc1c(C2CCCC2)n[nH]c1-c1ccccc1)NO [14c, 2-(3-Cyclopentyl-5-phenyl-1H-pyrazol-4-yl)ethanehydroxamic acid] | 53 | 5.6 | – | – | – | –
O=C(Cc1c(-c2ccc(C(=O)O)cc2)n[nH]c1-c1ccccc1)NO [14k, 4-[4-[2-(Hydroxyamino)-2-oxo-ethyl]-5-phenyl-1H-pyrazol-3-yl]benzoic acid] | 7 | 17.2 | – | – | – | –
O=C(Cc1c(-c2ccc(Cl)c(O)c2F)n[nH]c1-c1ccccc1)NO [14l, 2-[3-(4-Chloro-2-fluoro-3-hydroxyphenyl)-5-phenyl-1H-pyrazol-4-yl]ethanehydroxamic acid] | 31 | 2.2 | – | – | – | –
O=C(Cc1c(-c2c[nH]nc2C(F)(F)F)n[nH]c1-c1ccccc1)NO [14o, 2-[5-Phenyl-3-[3-(trifluoromethyl)-1H-pyrazol-4-yl]-1H-pyrazol-4-yl]ethanehydroxamic acid] | 55 | 1.6 | – | – | – | –
O=C(Cc1c(C2CCCC(C(=O)O)C2)n[nH]c1-c1ccccc1)NO (stereo not shown) [14r, 3-[4-[2-(Hydroxyamino)-2-oxo-ethyl]-5-phenyl-1H-pyrazol-3-yl]cyclohexanecarboxylic acid] | 39 | 1.4 | – | – | – | –

The next lines start with the values.

SF: selectivity factor (Ki(app) meprin β/Ki(app) meprin α) (human meprin α) | Ki (human meprin α) [nM] | Ki (human meprin β) [nM] | improvement in activity against meprin β by factor (human meprin β; compared to 7a) | increased inhibition of meprin β by factor (human meprin β; in comparison to the N-phenyl pyrazole 21b) | reduction of the meprin α selectivity by factor (human meprin α) | SMILES
291 | 1 | 291 | – | – | – | O=C(Cc1c(-c2ccccc2)nn(Cc2ccccc2)c1-c1ccccc1)NO [21e, 2-(1-Benzyl-3,5-diphenyl-pyrazol-4-yl)ethanehydroxamic acid]
167 | 4 | 667 | – | – | – | O=C(Cc1c(-c2ccccc2)nn(-c2ccccc2)c1-c1ccccc1)NO [21b, 2-(1,3,5-Triphenylpyrazol-4-yl)ethanehydroxamic acid]
1 | 5.1 | – | – | – | – | O=C(Cc1c(-c2cccc(C(=O)O)c2)n[nH]c1-c1ccc(Cl)c(O)c1F)NO [16i, 3-[5-(4-Chloro-2-fluoro-3-hydroxy-phenyl)-4-[2-(hydroxyamino)-2-oxo-ethyl]-1H-pyrazol-3-yl]benzoic acid]
46 | 4 | 182 | – | 3 | – | O=C(Cc1c(-c2ccccc2)nn(-c2ccc(C(=O)O)cc2)c1-c1ccccc1)NO [21d, 4-[4-[2-(Hydroxyamino)-2-oxo-ethyl]-3,5-diphenyl-pyrazol-1-yl]benzoic acid]
15 | 3.1 | – | – | – | 10–20 | O=C(Cc1c(-c2ccc3c(c2)OCO3)n[nH]c1-c1cccc(C(=O)O)c1)NO [16e, 3-[3-(1,3-Benzodioxol-5-yl)-4-[2-(hydroxyamino)-2-oxo-ethyl]-1H-pyrazol-5-yl)benzoic acid]
1 | – | 14.5 | – | – | – | O=C(Cc1c(-c2cccc(C(=O)O)c2)n[nH]c1-c1cccc(C(=O)O)c1)NO [16b, 3-[3-(3-Carboxyphenyl)-4-[2-(hydroxyamino)-2-oxo-ethyl]-1H-pyrazol-5-yl]benzoic acid]
13 | 0.4 | 5.2 | – | – | – | O=C(Cc1c([C@@H]2CCCC[C@@H]2C(=O)O)n[nH]c1-c1cccc(C(=O)O)c1)NO (relative stereo) [16k, 3-[4-[2-(Hydroxyamino)-2-oxo-ethyl]-3-[cis-2-carboxycyclohexyl]-1H-pyrazol-5-yl]benzoic acid]
1 | – | – | – | – | – | O=C(Cc1c(-c2cccc(C(=O)O)c2)[nH]nc1[C@H]1CC[C@H](C(=O)O)CC1)NO [16l, 3-[3-(Trans-4-Carboxycyclohexyl)-4-[2-(hydroxyamino)-2-oxo-ethyl]-1H-pyrazol-5-yl]benzoic acid]
1 | 9.6 | 11.2 | – | – | – | O=C(Cc1c(-c2ccc(C(=O)O)cc2)n[nH]c1-c1ccc(Cl)c(O)c1F)NO [16h, 4-[5-(4-Chloro-2-fluoro-3-hydroxy-phenyl)-4-[2-(hydroxyamino)-2-oxo-ethyl]-1H-pyrazol-3-yl]benzoic acid]
2 | 20.3 | 32.5 | – | – | – | O=C(Cc1c(-c2ccc(C(=O)O)cc2)n[nH]c1-c1cccc(C(=O)O)c1)NO [16g, 3-[3-(4-Carboxyphenyl)-4-[2-(hydroxyamino)-2-oxo-ethyl]-1H-pyrazol-5-yl]benzoic acid]
2 | – | – | – | – | – | O=C(Cc1c(-c2ccc(C(=O)O)cc2)n[nH]c1-c1ccc(C(=O)O)cc1)NO [16c, 4-[3-(4-Carboxyphenyl)-4-[2-(hydroxyamino)-2-oxo-ethyl]-1H-pyrazol-5-yl]benzoic acid]
9 | 10.5 | – | – | – | 10–20 | O=C(Cc1c(-c2ccc3c(c2)OCO3)n[nH]c1-c1ccc(C(=O)O)cc1)NO [16f, 4-[3-(1,3-Benzodioxol-5-yl)-4-[2-(hydroxyamino)-2-oxo-ethyl]-1H-pyrazol-5-yl)benzoic acid]
3 | 4.2 | – | – | – | – | O=C(Cc1c(-c2ccc(Cl)c(O)c2F)n[nH]c1-c1ccc(Cl)c(O)c1F)NO [16d, 2-[3,5-Bis(4-chloro-2-fluoro-3-hydroxyphenyl)-1H-pyrazol-4-yl]ethanehydroxamic acid]
